Reference: patent publication US11180483B2, “Substituted reverse pyrimidine Bmi-1 inhibitors” (PTC Therapeutics, Inc., priority 2012, dated 2021)

Test system: Bmi-1
Experiment: Sandwich ELISA Assay (Bmi-1 ELISA) in HT-1080 cells
Type: cell-based
Protocol: Cell Seeding and Compound Treatment (Day 1):
HT-1080 cells were seeded at 8000 cells/well (50 μL) in 96-well tissue culture plates. After the cells became adherent (3-4 hours), 2× diluted stocks of test compounds in 50 μL DMEM containing 1% DMSO (final DMSO concentration was 0.5%) were added and the plates were incubated at 37° C. under 5% CO2 for 40-48 hours.
ELISA Plate First Antibody Preparation (Day 2):
The First Antibody (Millipore Mouse, monoclonal to mouse Bmi-1, clone F6, catalog #05-637) diluted to 2 μg/mL in PBS was added (100 μL) to each well of a Nunc MaxiSorp 96-well ELISA plate. The plate was covered with a plate seal and allowed to stand overnight.
Cell Lysate Preparation (Day 3):
Fresh 1× Lysis buffer was prepared on the day of the assay as follows: 1 mM EDTA, 150 mM NaCl, 0.5% Triton-X 100, 10 mM NaF, 20 mM B-Glycerophosphate, 1 mM DTT (in PBS, pH 7.2-7.4) and 1× HALT protease inhibitor cocktail (Pierce #78410).
The 1× Lysis Buffer (40 μL) was added to each well and the plate was shaken for 5-10 minutes on an orbital shaker to allow cell lysis, then diluent (1% BSA in PBS in 0.5% NP40) (100 μL) was added to each well.
A standard curve was prepared at the following Bmi-1 concentrations: 8000, 4000, 2000, 1000, 500, 250, 125, 0 pg/mL The Bmi-1 Recombinant Protein Standard (Novus Biologicals PCGF4 Recombinant Protein (P01), catalog #H00000648-P01) used to prepare the standard curve was stored at −80° C. On first thaw, the Bmi-1 Recombinant Protein Standard was diluted to […] in Blocking Buffer (1% BSA in PBS; BSA: Fisher Scientific Catalog #1600-100). Aliquots were taken and refrozen at −80° C. The aliquots may be kept at 4° C. and reused after first thaw, but only within 1-2 weeks. The Bmi-1 Recombinant Protein Standard contains a GST-fusion tag that appears around 70 Kda on Western Blot.
The prepared ELISA plate was washed 3× with Wash Buffer (0.05% Tween-20 in PBS). The final wash was removed from the plate and the plate was blotted dry. Blocking Buffer (300 μL) (1% BSA in PBS) was added to each well. The plate was covered with a plate seal and incubated at room temperature for 1 hour. The blocked plate was washed 3× with Wash Buffer, then the final wash was removed and the plate was blotted dry. The previously prepared samples and standards were added (100 μL/well) and the plate was covered with a plate seal and incubated at 4° C. overnight.
The prepared ELISA plate was removed from 4° C., incubated at room temperature for 30 minutes, then washed and blotted dry as previously described for Day 3. The Second Antibody (Cell Signaling Rabbit anti-Bmi-1, Cat #2830) diluted to 1:600 in Blocking Buffer was added (100 μL) to each well, except as needed for background control wells. The plate was covered with a plate seal and incubated for 1.5 hrs at room temperature.
The ELISA plate was washed and blotted dry as previously described. The Third Antibody (Cell Signaling HRP conjugated anti-rabbit IgG (CellSignaling, Cat #:7074) diluted to 1:300 in Blocking Buffer was added (100 μL) to each well, except as needed for background control wells. The plate was incubated for 1 hr at room temperature.
The plate was washed and blotted dry as previously described, then prepared TMB substrate (TMB substrate kit, Pierce catalog #34021) (prepared by mixing kit reagents 1:1) (100 μL) was added per well. The plate was incubated for 20-30 minutes at room temperature in the dark, then Stop Solution (2 M sulfuric acid in water) (50 μL) was added per well. The plates were read at OD450 (experimental) and OD570 (reference).

| EC50 | SMILES |
| --- | --- |
| 1 to 10 nM | Cc1ccc(Nc2ccnc(-c3c(C(F)(F)F)nc4ccc(F)cn34)n2)cc1 [Cpd 21, 2-[6-fluoro-2-(trifluoromethyl)imidazo[1,2-a]pyridin-3-yl]-N-(4-methylphenyl)pyrimidin-4-amine] |
| 100 to 3000 nM | Cc1nc2ccccn2c1-c1nc(N)c(F)c(Nc2ccc(OC(F)F)c(F)c2)n1 [Cpd 171, N-[4-(difluoromethoxy)-3-fluorophenyl]-5-fluoro-2-(2-methylimidazo[1,2-a]pyridin-3-yl)pyrimidine-4,6-diamine] |
| 100 to 3000 nM | Cc1nc2ccccc2n1-c1nc(N)c(F)c(Nc2ccc(C#N)cc2)n1 [Cpd 202, 4-{[6-amino-5-fluoro-2-(2-methyl-1H-benzimidazol-1-yl)pyrimidin-4-yl]amino}benzonitrile] |
| 1 to 10 nM | Cc1ccc(Nc2nc(-n3c(C)nc4ccc(N)cc43)nc(N)c2F)cc1 [Cpd 258, 2-(6-amino-2-methyl-1H-benzimidazol-1-yl)-5-fluoro-N-(4-methylphenyl)pyrimidine-4,6-diamine] |
| 10 to 100 nM | Cc1nc2ncc(Cl)cc2n1-c1nc(N)cc(Nc2ccc(C(F)(F)F)cc2)n1 [Cpd 104, 2-(6-chloro-2-methyl-1H-imidazo[4,5-b]pyridin-1-yl)-N-[4-(trifluoromethyl)phenyl]pyrimidine-4,6-diamine] |
| 10 to 100 nM | COc1ccc2nc(C)n(-c3nc(N)c(F)c(Nc4ccc(Cl)cc4)n3)c2c1 [Cpd 245, N-(4-chlorophenyl)-5-fluoro-2-(6-methoxy-2-methyl-1H-benzimidazol-1-yl)pyrimidine-4,6-diamine] |
| 10 to 100 nM | CCc1nc2c(F)cc(F)cc2n1-c1nc(N)c(F)c(Nc2ccc(C(F)(F)F)cc2)n1 [Cpd 129, 2-(2-ethyl-4,6-difluoro-1H-benzimidazol-1-yl)-5-fluoro-N-[4-(trifluoromethyl)phenyl]pyrimidine-4,6-diamine] |
| 10 to 100 nM | Cc1nc2ccccc2n1-c1nc(N)c(F)c(Nc2ccc(OC(F)F)c(F)c2)n1 [Cpd 119, N-[4-(difluoromethoxy)-3-fluorophenyl]-5-fluoro-2-(2-methyl-1H-benzimidazol-1-yl)pyrimidine-4,6-diamine] |
| 10 to 100 nM | Nc1nc(-n2c(C3CC3)nc3ccccc32)nc(Nc2ccc(OC(F)F)c(F)c2)c1F [Cpd 122, 2-(2-cyclopropyl-1H-benzimidazol-1-yl)-N-[4-(difluoromethoxy)-3-fluorophenyl]-5-fluoropyrimidine-4,6-diamine] |
| 10 to 100 nM | COCc1nc2ccccc2n1-c1nc(N)c(F)c(Nc2ccc(C(F)(F)F)cc2)n1 [Cpd 220, 5-fluoro-2-[2-(methoxymethyl)-1H-benzimidazol-1-yl]-N-[4-(trifluoromethyl)phenyl]pyrimidine-4,6-diamine] |
| 1 to 10 nM | COCc1nc2ccccc2n1-c1nc(N)c(F)c(Nc2ccc(OC)cc2)n1 [Cpd 218, 5-fluoro-2-[2-(methoxymethyl)-1H-benzimidazol-1-yl]-N-(4-methoxyphenyl)pyrimidine-4,6-diamine] |
| 10 to 100 nM | CCc1nc2ccccc2n1-c1nc(N)c(F)c(Nc2ccc(Cl)cc2)n1 [Cpd 274, N-(4-chlorophenyl)-2-(2-ethyl-1H-benzimidazol-1-yl)-5-fluoropyrimidine-4,6-diamine] |
| 100 to 3000 nM | Cc1nc2ccc(Br)cc2n1-c1nc(N)cc(Nc2ccc(C(F)(F)F)cc2)n1 [Cpd 85, 2-(6-bromo-2-methyl-1H-benzimidazol-1-yl)-N-[4-(trifluoromethyl)phenyl]pyrimidine-4,6-diamine] |
| 100 to 3000 nM | Cc1nc2ccccc2n1-c1nc(NCCO)cc(Nc2ccc(OC(F)F)cc2)n1 [Cpd 52, 2-{[6-{[4-(difluoromethoxy)phenyl]amino}-2-(2-methyl-1H-benzimidazol-1-yl)pyrimidin-4-yl]amino}ethanol] |
| 1 to 10 nM | Cc1ccc(Nc2nc(-n3c(C)nc4ccccc43)nc(N)c2F)cc1 [Cpd 199, 5-fluoro-2-(2-methyl-1H-benzimidazol-1-yl)-N-(4-methylphenyl)pyrimidine-4,6-diamine] |
| 10 to 100 nM | CCc1nc2ncc(Cl)cc2n1-c1nc(N)cc(Nc2ccc(C(F)(F)F)cc2)n1 [Cpd 105, 2-(6-chloro-2-ethyl-1H-imidazo[4,5-b]pyridin-1-yl)-N-[4-(trifluoromethyl)phenyl]pyrimidine-4,6-diamine] |
| 10 to 100 nM | Cc1nc2cc(F)c(F)cc2n1-c1nc(N)c(F)c(Nc2ccc(OC(F)F)cc2)n1 [Cpd 133, N-[4-(difluoromethoxy)phenyl]-2-(5,6-difluoro-2-methyl-1H-benzimidazol-1-yl)-5-fluoropyrimidine-4,6-diamine] |
| 1 to 10 nM | Cc1ccc(Nc2nc(-n3c(C)nc4cc(F)ccc43)nc(N)c2F)cc1 [Cpd 281, 5-fluoro-2-(5-fluoro-2-methyl-1H-benzimidazol-1-yl)-N-(4-methylphenyl)pyrimidine-4,6-diamine] |
| 10 to 100 nM | COCc1nc2ccccc2n1-c1nc(N)c(F)c(Nc2ccc(OC(F)F)cc2)n1 [Cpd 216, N-[4-(difluoromethoxy)phenyl]-5-fluoro-2-[2-(methoxymethyl)-1H-benzimidazol-1-yl]pyrimidine-4,6-diamine] |
| 10 to 100 nM | Cc1nc2ncccc2n1-c1nc(N)c(F)c(Nc2ccc(C(F)(F)F)cc2)n1 [Cpd 137, 5-fluoro-2-(2-methyl-1H-imidazo[4,5-b]pyridin-1-yl)-N-[4-(trifluoromethyl]phenyl]pyrimidine-4,6-diamine] |
| 10 to 100 nM | Cc1ccc(Nc2nc(-n3c(C)nc4ccc(C#N)cc43)nc(N)c2F)cc1 [Cpd 224] |
| 100 to 3000 nM | CC1(c2nc3ccccc3n2-c2nc(N)cc(Nc3ccc(OC(F)F)cc3)n2)CC1 [Cpd 148, N-[4-(difluoromethoxy)phenyl]-2-[2-(1-methylcyclopropyl)-1H-benzimidazol-1-yl]pyrimidine-4,6-diamine] |
| 100 to 3000 nM | Cc1nn2ccccc2c1-c1nc(N)cc(Nc2ccc(C(F)(F)F)cc2)n1 [Cpd 154, 2-(2-methylpyrazolo[1,5-a]pyridin-3-yl)-N-[4-(trifluoromethyl]phenyl]pyrimidine-4,6-diamine] |
| 10 to 100 nM | CCc1nc2ccc(F)cc2n1-c1nc(N)c(F)c(Nc2ccc(C(F)(F)F)cc2)n1 [Cpd 164, 2-(2-ethyl-6-fluoro-1H-benzimidazol-1-yl)-5-fluoro-N-[4-(trifluoromethyl)phenyl]pyrimidine-4,6-diamine] |
| 100 to 3000 nM | COc1ccc(Nc2nc(-n3c(C)nc4cc([N+](=O)[O-])ccc43)nc(N)c2F)cc1 [Cpd 255, 5-fluoro-N-(4-methoxyphenyl)-2-(2-methyl-5-nitro-1H-benzimidazol-1-yl)pyrimidine-4,6-diamine] |
| 100 to 3000 nM | CSc1nc2ccccc2n1-c1nc(N)cc(Nc2ccc(C(F)(F)F)cc2)n1 [Cpd 182, 2-[2-(methylsulfanyl)-1H-benzimidazol-1-yl]-N-[4-(trifluoromethyl)phenyl]pyrimidine-4,6-diamine] |
| 100 to 3000 nM | FC(F)(F)c1nc2ccc(Cl)cn2c1-c1nccc(Nc2ccc(Cl)cc2)n1 [Cpd 17, N-(4-chlorophenyl)-2-[6-chloro-2-(trifluoromethyl)imidazo[1,2-a]pyridin-3-yl]pyrimidin-4-amine] |
| 10 to 100 nM | COc1ccc2nc(C)n(-c3nc(N)c(F)c(Nc4ccc(OC(F)F)cc4)n3)c2c1 [Cpd 247, N-[4-(difluoromethoxy)phenyl]-5-fluoro-2-(6-methoxy-2-methyl-1H-benzimidazol-1-yl)pyrimidine-4,6-diamine] |
